Molecular target: T1, human LCE (Homo sapiens, UniProt Q9H5J4)
T1 sequence (Q9H5J4 1-265): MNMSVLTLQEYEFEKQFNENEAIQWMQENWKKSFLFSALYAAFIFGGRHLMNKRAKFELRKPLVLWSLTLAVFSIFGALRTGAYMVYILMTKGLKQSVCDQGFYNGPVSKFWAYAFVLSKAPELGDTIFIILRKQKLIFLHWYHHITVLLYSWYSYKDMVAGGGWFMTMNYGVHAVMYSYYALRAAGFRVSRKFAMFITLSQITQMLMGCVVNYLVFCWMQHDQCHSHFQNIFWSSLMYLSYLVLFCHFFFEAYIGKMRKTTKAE
Assay: LCE enzyme activity inhibition test
Assay type: biochemical
Settings: not given
Experimental: Pharmacological Test Example 1 (LCE Enzyme Activity Inhibition Test)
A test compound was dissolved in dimethylsulfoxide (DMSO) to 10 mM, and further diluted with DMSO to prepare a 1000-fold concentrated solution, compared with the evaluated concentration. The LCE enzyme activity inhibition test was carried out according to a modification of the method of Moon (J. Biol. Chem., Vol. 276, pp. 45358-45366 (2001)) et al. Specifically, the diluted test compound was added to a 96-well assay plate (Corning, 96-well assay block) at 1.0 μL per well, and then 50 μL of phosphate buffer solution (100 mM potassium phosphate buffer solution (pH 6.5)), 25 μL of substrate solution (100 mM potassium phosphate buffer solution (pH 6.5)), 4.0 μM rotenone, 80 μM fatty acid free bovine serum albumin, 160 μM palmitoyl-CoA 80 μM malonyl-CoA, and 3.5 μM [^14C]-malonyl-CoA (1.92 GBq/mmol, manufactured by Amersham) were added to each well. Further, 25 μL of enzyme solution (100 mM potassium phosphate buffer solution (pH 6.5), 100 μg/mL human LCE) was added thereto. The plate was hermetically closed at the top with a seal, and then incubated with gentle agitation by shaking at 37° C. for 90 minutes. Subsequently, 100 μL of 5N HCl was added to each well, and the assay plate was agitated for 5 minutes at room temperature to stop the enzymatic reaction and also hydrolyze acyl-CoA. Subsequently, the enzymatic reaction solution of each well was adsorbed on each well of a 96-well GF/C filter plate (PerkinElmer, UniFilter 96 GF/C) that had been previously dipped in water. The wells were washed with water to remove unabsorbed malonyl-CoA, and the GF/C filter plate was dried at 50° C. for 60 minutes. Subsequently, 30 μL of scintillator (PerkinElmer, MicroScinti 0) was added to each well, and the plate was sealed at the top. Using a microplate scintillation counter (PerkinElmer, TopCount), the radiation activity of the fixed [^14C] was measured and obtained as the enzyme activity. The human LCE enzyme inhibitory activity of a test compound was calculated based on the radio activity in the well containing test-compound-free DMSO as a control. Compounds of the invention were examined according to this assay.

SMILES | IC50 [nM]
O=C(Nc1ccc(C(F)(F)F)cc1)N1C2CCC1CC(S(=O)(=O)c1ccccn1)C2 (centres unmarked) [Example 9, 3-(pyridin-2-ylsulfonyl)-N-[(4-trifluoromethyl)phenyl]-8-azabicyclo[3.2.1]octane-8-carboxamide] | 92

Same assay, conditions: human LCE; [14C]-malonyl-CoA and palmitoyl-CoA substrate; 37° C. for 90 minutes; pH 6.5; read-out: IC50

SMILES | IC50 [nM]
O=C(Nc1ccc(C(F)(F)F)cc1)N1C2CCC1CC(S(=O)(=O)c1ccccc1)C2 (centres unmarked) [Example 1, 3-phenylsulfonyl-N-[(4-trifluoromethyl)phenyl]-8-azabicyclo[3.2.1]octane-8-carboxamide] | 98
O=C(Nc1ccc(C(F)(F)F)cc1)N1C2CCC1CC(S(=O)(=O)c1ccc(F)cc1)C2 (centres unmarked) [Example 2, 3-(4-fluorophenyl)sulfonyl-N-[(4-trifluoromethyl)phenyl]-8-azabicyclo[3.2.1]octane-8-carboxamide] | 108
O=C(Nc1ccc(C(F)(F)F)cc1)N1C2CCC1CC(S(=O)(=O)c1ncccn1)C2 (centres unmarked) [Example 12, 3-(pyrimidin-2-ylsulfonyl)-N-[(4-trifluoromethyl)phenyl]-8-azabicyclo[3.2.1]octane-8-carboxamide] | 100
CC(C)c1ccc(NC(=O)N2C3CCC2CC(S(=O)(=O)c2ccccc2)C3)cc1 (centres unmarked) [Example 16, N-(4-isopropylphenyl)-3-phenylsulfonyl-8-azabicyclo[3.2.1]octane-8-carboxamide] | 29
O=C(Nc1ccc(C(F)(F)F)nc1)N1C2CCC1CC(S(=O)(=O)c1ccccc1)C2 (centres unmarked) [Example 32, 3-phenylsulfonyl-N-[6-(trifluoromethyl)pyridin-3-yl]-8-azabicyclo[3.2.1]octane-8-carboxamide] | 127
O=C(Nc1cncc(C(F)(F)F)c1)N1C2CCC1CC(S(=O)(=O)c1ccccc1)C2 (centres unmarked) [Example 33, 3-phenylsulfonyl-N-[5-(trifluoromethyl)pyridin-3-yl]-8-azabicyclo[3.2.1]octane-8-carboxamide] | 103
O=C(Nc1ccc(C(F)(F)F)cn1)N1C2CCC1CC(S(=O)(=O)c1ncccn1)C2 (centres unmarked) [Example 35] | 194
CC(C)c1ccc(NC(=O)N2C3CCC2CC(S(=O)(=O)c2ccccn2)C3)cc1 (centres unmarked) [Example 36, N-(4-isopropylphenyl)-3-(pyridin-2-ylsulfonyl)-8-azabicyclo[3.2.1]octane-8-carboxamide] | 32
CC(C)c1ccc(NC(=O)N2C3CCC2CC(S(=O)(=O)c2ncccn2)C3)cc1 (centres unmarked) [Example 37, N-(4-isopropylphenyl)-3-(pyrimidin-2-ylsulfonyl)-8-azabicyclo[3.2.1]octane-8-carboxamide] | 22
CC(C)(C)c1ccc(NC(=O)N2C3CCC2CC(S(=O)(=O)c2ccccn2)C3)cc1 (centres unmarked) [Example 40, N-(4-tert-butylphenyl)-3-(pyridin-2-ylsulfonyl)-8-azabicyclo[3.2.1]octane-8-carboxamide] | 125

Source: US8163898B2, “4-sulfonylpiperidine derivatives” (MSD K. K., priority 2007, dated 2012)
